Assay results: patent US20260199484A1, “PROTAC DEGRADERS OF MLLT1 AND/OR MLLT3” (DARK BLUE THERAPEUTICS LTD, priority 2024, published 2026)

Experiments:
MLLT1 [1] = molecular target: T1, MLLT1 (Homo sapiens, UniProt Q03111); experiment: MLLT1 HTRF IC50 determination assay (H3K9cro peptide displacement); assay type: binding
T1 sequence (Q03111 1-559): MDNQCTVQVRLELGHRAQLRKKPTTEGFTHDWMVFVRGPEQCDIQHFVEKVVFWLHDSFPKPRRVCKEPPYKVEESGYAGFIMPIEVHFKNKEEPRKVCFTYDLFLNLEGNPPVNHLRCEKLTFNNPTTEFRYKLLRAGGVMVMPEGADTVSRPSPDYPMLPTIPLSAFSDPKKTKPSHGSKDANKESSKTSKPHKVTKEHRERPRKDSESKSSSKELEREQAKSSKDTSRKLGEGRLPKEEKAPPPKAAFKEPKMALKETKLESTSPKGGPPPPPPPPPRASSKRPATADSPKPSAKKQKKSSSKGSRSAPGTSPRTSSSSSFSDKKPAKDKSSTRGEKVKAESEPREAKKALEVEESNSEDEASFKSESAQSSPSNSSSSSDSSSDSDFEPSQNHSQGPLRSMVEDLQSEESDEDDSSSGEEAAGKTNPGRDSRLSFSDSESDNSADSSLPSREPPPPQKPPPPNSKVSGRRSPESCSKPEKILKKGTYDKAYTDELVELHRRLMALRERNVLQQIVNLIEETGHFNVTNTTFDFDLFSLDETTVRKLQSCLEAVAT
Excerpt: (§1) This procedure is intended to measure the interaction between YEATS proteins and histone peptides modified by an appropriate epigenetic mark and can be used to assay compounds which bind to the YEATS proteins and inhibit this interaction. The assay uses 6His tagged MLLT1 or MLLT3 with an anti-6His antibody conjugated with Eu^3+ chelate (donor) and a biotinylated peptide with Streptavidin conjugated XL-665 (acceptor). When the donor and acceptor labels are in close proximity, by binding of the peptide by MLLT1 or MLLT3, the excitation of the donor (337 nm) triggers a Fluorescence Resonance Energy Transfer (FRET) to the acceptor which then fluoresces at specific wavelength (665 nm).
(§2) This step optimises the protein/peptide ratio that will be used in HTRF screening assay in order to allow the best signal-to-noise ratio. Each new purified protein should be titrate this way as the signal-to-noise ratio may differ from different protein batches. Displacement assay for MLLT1 and MLLT3 was performed by using H3K9 cro peptide (ARTKQTAR(Kcrot)STGGKAPRKQLYK(biotin)).
(§3) A serial dilution of 4× solution of biotinylated peptide was prepared in assay buffer (25 mM HEPES, 20 mM NaCl, 0.05% BSA, 0.05% Tween-20, pH 7.0) covering concentrations from 3.2 μM to 0.2 nM. and 5 μL of each dilution were transferred horizontally to fill 15 columns of a white ProxiPlate-384 Plus shallow well Microplate (Perkin Elmer, USA). A sixteenth column of buffer was also included for a background reference. In parallel, a serial dilution of the 6His-tag protein of interest was prepared in the same way and 5 μL of each dilution were vertically added to the wells containing the peptide dilutions. Buffer has been transferred to the last line of the plate in order to make a no-protein reference. The microplate has been covered and incubated 1 hour at room temperature. A 2× detection mix was prepared in assay buffer by diluting streptavidin conjugated with XL-665 (610SAXLB, Cisbio Bioassays, France) to 1/2000 and anti-6His(Eu) chelate (LANCE Eu-W1024 Anti-6×His, ADO111, Perkinelmer LAS (UK)LTD) to 1/20000, 10 μL were added to each well and the plate has been incubated for 1 to 24 hours at room temperature in the dark. The plate was read in the Pherastar using the HTRF module with dual emission protocol (A=ex. 320 nm em. 665 nm, B=ex. 320 nm em. 620 nm).
(§4) The HTRF ratio was calculated as channel A/B*10000 and the specific signal as follow: specific signal=HTRF Ratio Positive signal—HTRF Ratio Negative signal (without protein). The concentrations of protein and peptide that allow the maximum specific signal without saturation were selected to perform HRTF screening assay described below.
(§5) The compounds were dissolved in DMSO at a stock concentration of 10 mM and dispensed into microplate using the Echo acoustic liquid handler (Labcyte, Beckman Coulter, USA). The assay covers a window of compound concentrations from 20 μM to 20 nM spread in 11 data points in duplicate. Solvent and compound controls were added to each plate in order to calculate the background signal.
(§6) Ten microliters of 2× mix of 6His-protein and biotinylated peptide, the concentrations were determined above, were added to the dispensed compounds and incubated for one hour at room temperature in the dark. Ten microliters of the 2× detection mix was added to each well and the plate was incubated for another hour at room temperature in the dark and the plate was read in order to calculate the HTRF specific signal. The % inhibition values as follows:
(§7) The IC50 values were determined by plotting % inhibition vs compound concentration and fitting the data to a non-linear sigmoidal dose response equation (4 parameter fit): […]

MLLT3 = molecular target: T2, MLLT3 (Homo sapiens, UniProt P42568); experiment: MLLT3 HTRF IC50 determination assay (H3K9cro peptide displacement); assay type: binding
T2 sequence (P42568 1-568): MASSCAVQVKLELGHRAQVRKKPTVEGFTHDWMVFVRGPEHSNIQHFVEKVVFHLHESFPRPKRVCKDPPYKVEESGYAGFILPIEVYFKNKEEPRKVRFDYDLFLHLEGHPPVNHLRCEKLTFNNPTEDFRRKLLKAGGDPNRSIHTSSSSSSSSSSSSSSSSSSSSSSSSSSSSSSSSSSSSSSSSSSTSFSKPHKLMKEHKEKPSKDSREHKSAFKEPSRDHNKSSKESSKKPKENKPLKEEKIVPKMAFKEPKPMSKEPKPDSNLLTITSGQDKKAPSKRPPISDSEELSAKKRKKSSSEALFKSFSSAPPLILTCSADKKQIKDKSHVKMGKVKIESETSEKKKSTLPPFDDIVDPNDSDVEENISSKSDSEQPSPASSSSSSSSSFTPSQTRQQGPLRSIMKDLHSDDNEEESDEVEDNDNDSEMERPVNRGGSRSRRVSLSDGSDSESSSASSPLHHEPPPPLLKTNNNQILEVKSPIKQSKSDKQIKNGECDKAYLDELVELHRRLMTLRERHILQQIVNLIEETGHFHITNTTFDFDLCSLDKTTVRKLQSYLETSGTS
Excerpt: as §1, §2, §3, §4, §5, §6, §7

MV4-11 cells [2] = experiment: MV4-11 cellular proliferative assay, Assay Format A (CellTiter-Glo, 120 h); assay type: cell-based; details: Homo sapiens, Assay method A, Table 3, read-out: MV4-11 antiproliferative IC50
Summary of the method: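 MV4-11 cells seeded at 50 cells/well and exposed for 120 h to compound (10 semi-log dilutions, top 30 μM) or DMSO. Viability by CellTiter-Glo luminescence, normalised to DMSO and reference-compound wells; AC50 from Hill fit.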

MV4-11 cells [3] = experiment: MV4-11 cellular proliferative assay, Assay Format B (CTG 2.0, 168 h); assay type: cell-based; details: Homo sapiens, Assay Method B, Table 7, read-out: MV4-11 Antiproliferation IC50
Summary of the method: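 Cells seeded at 600/well in IMDM + 10% FBS, incubated overnight, then exposed 168 h (7 days) at 37 °C to 10 concentrations, 3-fold dilutions from 1 uM or 100 nM top dose (0.3% DMSO final). Viability by CTG 2.0 luminescence as % of DMSO control; curves fitted by four-parameter logistic regression.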

MLLT1 [4] = molecular target: T1, MLLT1; experiment: MLLT1 DC50 and Dmax determination in MV4-11 cells (JESS, 4 h); assay type: cell-based; parameters: endogenous in cells; host or cells: MV4-11 (ATCC CRL-9591); details: MLLT1 degradation
Experimental: MLLT1 degradation efficacy of compounds was tested in an automated chemiluminescent detection system (JESS, Cat #004-650). MV4-11 (#CRL-9591, ATCC) were seeded at a density of 1.2 million cells/well in a non-treated 6-well cell culture plate in 2.4 mL of complete medium (IMDM+10% FBS+1× Penicillin-Streptomycin). 10 mM DMSO stocks were prepared, and cells were treated with eight concentrations of test compounds, starting from 100 nM, 5-fold dilution, at a final DMSO concentration of 0.1% and incubated for 4 h at 37° C., 5% CO2. Post incubation, cells were centrifuged, washed with HBSS and lysed in 60 μL of RIPA buffer supplemented with Protease inhibitors (sc-24948; Santa Cruz). Protein estimation was done using BCA protein assay kit (23228; Pierce). 4 gg protein lysate (4 μL of 1 μg/μL lysate) was loaded into each well of the JESS cartridge (SM-W004; Bio-techne) and the JESS run was performed using 1:900 dilution of anti-human MLLT1 antibody (ABE2596; Merck) and 1:1200 dilution of anti-human GAPDH antibody (2118; Cell signaling technology) with anti-rabbit secondary detection module (DM-001; Bio-Techne). Post run, data was analysed using “Compass for SW” software for chemiluminescent detection. Peak fit was done using “dropped lines” method. Peak area for MLLT1 and GAPDH was used for the calculation of MLLT1 degradation with respect to DMSO control. Data was shown as “% degradation”. % Degradation was plotted against the respective doses (test compound concentration) and dose-response curve (DRC) was generated using four-parameter logistic equation (non-linear regression). Following parameters for each DRC was captured: DC50 (concentration in nM at which degradation is 50%, interpolated from standard curve and transformed to linear scale), Dmax (maximum % degradation observed). DC50 and Dmax data are captured in Table 7 for Example 1 and Example 110, which is a comparative example.

IC50 (MV4-11 cells [3]) | DC50 (MLLT1 [4]) | Dmax (MLLT1 [4]; maximum % degradation observed) | Compound | IC50 (MLLT1 [1]; Table 5) | IC50 (MLLT1 [1]; category, Table 4) | IC50 (MLLT3; Table 5) | IC50 (MLLT3; category, Table 4) | IC50 (MV4-11 cells [2])
– | – | – | Cc1nn(C)c2cc(C(=O)Nc3cc4[nH]c([C@H]5CCCN5C)cc4cn3)ccc12 (single isomer, unassigned) [Example 76] | 43 nM | ≤ 100 nM | 81 nM | ≤ 100 nM | 40 nM
> 1000 nM | 41 nM | 58% | Cc1nn(CCCCCCCC#Cc2cccc3c2CN(C2CCC(=O)NC2=O)C3=O)c2cc(C(=O)Nc3cc4[nH]c(CN5CCCC5)cc4cn3)ccc12 (centres unmarked) [Example 110, 1-(9-(2-(2,6-dioxopiperidin-3-yl)-1-oxoisoindolin-4-yl)non-8-yn-1-yl)-3-methyl-N-(2-(pyrrolidin-1-ylmethyl)-1H-pyrrolo[3,2-c]pyridin-6-yl)-1H-indazole-6-carboxamide] | – | – | – | – | –
